These results are taken from US3993683A, “Biphenylyl derivatives” (Boehringer Ingelheim GmbH, priority 1974, dated 1976).

Data set [1] relates to thrombocyte aggregation in the platelet-rich plasma of healthy human test subjects. As to the kind of experiment: Inhibition of collagen-induced thrombocyte aggregation (method of Born and Cross). It counts as cell-based. The following applies: 10^-4 mol/liter test compound, 10 minutes incubation at 37° C, vs untreated controls; for inhibition at 100 µM: Homo sapiens, 10 min. An excerpt:
1. The inhibiting action upon thrombocyte aggregation was ascertained by the method of Born and Cross, J. Physiol. 170, 397 (1964), in the platelet-rich plasma of healthy human test subjects, by photometrically ascertaning and registering the rate of decrease of the optical density after addition of commercial collagen containing 1 mgm of collagen fibrils per ml. The angle of inclination of the density curve is a measure of the rate of aggregaton (V max.). The point on the curve which corresponded to the greatest lightpermeability was used for calculation of the optical density (o.D.).
The collagen doses were held to a minimum, but still sufficiently large to result in an irreversible aggregation. Prior to addition of collagen, each plasma sale was incubated for 10 minutes at 37° C with various amounts of the test compound. To provoke maximum aggregation, about 0.01 ml of the collagen solution was added to 1 ml of platelet-rich plasma.
The values in Table I below represent the inhibition of the aggregation rate in % (V max) and the alteration of the optical density (O.D.) in %, compared with the untreated controls, i.e. without addition of the test compound.

For another data set, the system named is non-anesthetized mice. As to the kind of experiment: Prolonging effect upon the bleeding time (method of Duke). Conditions: 10 mgm/kg per os, vs untreated animals; for change in vivo at 10 mg/kg: Mus musculus, po. The class given is in vivo. The text has this: 2. The prolonging effect upon the bleeding time was ascertained by the method of Duke, J. Amer. Med. Assoc. 15, 1185 (1910). 10 mgm/kg of the test compound were given per os to non-anesthetized mice. One or three hours after administration of the test compound, about 0.5 mm was cut off from the tail of each animal, and the exuded blood was carefully soaked up with filter paper at intervals of 30 seconds. The number of drops of blood so obtained was used as a measure for the bleeding time compared to untreated animals (5 animals/test).

In a further data set the test system is white mice. Briefly: Acute toxicity after oral administration of a single dose. The class given is in vivo. Conditions: observation time 14 days. The method, then: (§1) The acute toxicity of the test compounds was determined in white mice (observation time: 14 days) after oral administration of a single dose.
Test in data set [2]: as above
It counts as in vivo. The following applies: mouse, in vivo, po, white mice, observation time 14 days. The method, then:
as §1

Where [3] appears, read: 1 h, 1 hour after administration, read-out: Prolongation of bleeding time in % after 1 hour.
[4] abbreviates: 3 h, 3 hours after administration, read-out: Prolongation of bleeding time in % after 3 hours.
[5] abbreviates: read-out: Inhibition in % of the aggregation rate (V max).
The mark [6] stands for this setting: read-out: Inhibition in %: alteration of the optical density (O.D.).

Molecules are shown by their SMILES. Where two headings read alike, the source gives them in different places.

With `COC(=O)C[S+]([O-])C(C)c1ccc(-c2ccccc2F)cc1` (single isomer, unassigned) [A, [1-(2'-fluoro-4-biphenylyl)-ethylsulfinyl]-acetic acid methyl ester], in data set [1], the “Inhibition in % of the aggregation rate (V max)” value (“Inhibition in % … (V max)” below) amounted to 32% and the “Inhibition in %: alteration of the optical density (O.D.)” value (“Inhibition in %: alteration” for short) is given as 45%. Moreover, the change in vivo at 10 mg/kg in the data set on non-anesthetized mice (setting [3]) is 136%. In addition, the change in vivo at 10 mg/kg in the data set with non-anesthetized mice (setting [4]) was 66%. In addition, the “animals died (at the stated dose)” value with white mice is given as 1 out of 10.
For `COC(=O)C[S+]([O-])C(C)c1ccc(-c2ccccc2F)cc1` (single isomer, unassigned) [B, [1-(2'-fluoro-4-biphenylyl)-ethylsulfinyl]-acetic acid methyl ester], in data set [1], the “Inhibition in % … (V max)” value is on record as 72% and the “Inhibition in %: alteration” value turned out to be 81%. Moreover, in the data set with non-anesthetized mice (1 hour after administration), the “Prolongation of bleeding time in % after 1 hour” value is reported as 142%. Besides, the “Prolongation of bleeding time in % after 3 hours” value in the data set with non-anesthetized mice (3 hours after administration) came to 56%. Also, the “animals died (at the stated dose)” value with white mice is 2 out of 5.
Regarding `COC(=O)C[S+]([O-])C(C)c1ccc(-c2ccccc2F)cc1` (single isomer, unassigned) [F, dextrorotatory [1-(2'-fluoro-4-biphenylyl)-ethylsulfinyl]-acetic acid methyl ester], the inhibition at 100 µM in data set [1] (setting [5]) turned out to be 20%; in data set [1] (setting [6]) it was 19%. The change in vivo at 10 mg/kg with non-anesthetized mice (setting [3]) is 117%.
In the case of `COC(=O)C[S+]([O-])C(C)c1ccc(-c2ccccc2F)cc1` (single isomer, unassigned) [G, levorotatory [1-(2'-fluoro-4-biphenylyl)-ethylsulfinyl]-acetic acid methyl ester], in data set [1], the “Inhibition in % … (V max)” value is given as 13% and the “Inhibition in %: alteration” value is 27%. The “Prolongation of bleeding time in % after 1 hour” value in the data set on non-anesthetized mice (1 hour after administration) was found to be 129%.
The LD50 is the dose expected to kill half of the subjects tested. A high value points to a less toxic substance. Regarding `CC(C)CCOC(=O)C[S+]([O-])C(C)c1ccc(-c2ccccc2F)cc1` (stereo not drawn) [C, [1-(2'-fluoro-4-biphenylyl)-ethylsulfinyl]-acetic acid isoamyl ester], the inhibition at 100 µM in data set [1] (setting [5]) is 67%; in data set [1] (setting [6]), 82%. Further, the change in vivo at 10 mg/kg was determined as 112% in the data set on non-anesthetized mice (setting [3]) and 49% in the data set with non-anesthetized mice (setting [4]). The compound further yielded a 50% lethal dose (LD50) at 336 h in data set [2] of over 250 mg/kg. Besides, the “animals died (at the stated dose)” value with white mice was 1 out of 5.
As to `COC(=O)C[S+]([O-])C(C)(C)c1ccc(-c2ccccc2F)cc1` (stereo not drawn) [D], the inhibition at 100 µM in data set [1] (setting [5]) was 37%; in data set [1] (setting [6]), 48%. Besides, in the data set on non-anesthetized mice (setting [3]), the change in vivo at 10 mg/kg is 71%. This compound also had an LD50 at 336 h in data set [2] of over 250 mg/kg. Further, in the data set with white mice, the “animals died (at the stated dose)” value is 2 out of 5.
With `COC(=O)C[S+]([O-])CCC(C)c1ccc(-c2ccccc2)cc1` (stereo not drawn) [E, [3-(4-biphenylyl)-butyl-(1)-sulfinyl]-acetic acid methyl ester], the results for the inhibition at 100 µM in data set [1] (setting [5]) and in data set [1] (setting [6]) were 92% and 95%, respectively. Moreover, the change in vivo at 10 mg/kg is 188% with non-anesthetized mice (setting [3]) and 85% with non-anesthetized mice (setting [4]). In addition, in data set [2], the 50% lethal dose (LD50) at 336 h was over 250 mg/kg. Also, the “animals died (at the stated dose)” value in the data set on white mice is 0 out of 5.
`CNC(=O)C[S+]([O-])C(C)c1ccc(-c2ccccc2F)cc1` (stereo not drawn) [H, [1-(2'-fluoro-4-biphenylyl)-ethylsulfinyl]-acetic acid methyl amide]: the inhibition at 100 µM in data set [1] (setting [5]) stood at 8%; in data set [1] (setting [6]) it was 13%. Besides, the change in vivo at 10 mg/kg with non-anesthetized mice (setting [3]) worked out at 64%. This compound showed an LD50 at 336 h in data set [2] of over 250 mg/kg. Moreover, the “animals died (at the stated dose)” value in the data set with white mice is 0 out of 5.
Taken in the same sequence, the figures for `CC(c1ccc(-c2ccccc2F)cc1)[S+]([O-])CC(=O)N1CCCCC1` (stereo not drawn) [I, [1-(2'-fluoro-4-biphenylyl)-ethylsulfinyl]-acetic acid piperidide] were 85%, 90%, 122%, over 250 mg/kg and 0 out of 5.
`CC(c1ccc(-c2ccccc2F)cc1)[S+]([O-])CC(=O)N1CC[S+]([O-])CC1` (stereo not drawn) [J, [1-(2'-fluoro-4-biphenylyl)-ethylsulfinyl]-acetic acid-(1-oxido-thiomorpholide)]: the values for the inhibition at 100 µM in data set [1] (setting [5]) and in data set [1] (setting [6]) were 16% and 31%, respectively. The change in vivo at 10 mg/kg with non-anesthetized mice (setting [3]) was found to be 149%. In data set [2], this compound registered an LD50 at 336 h of over 250 mg/kg. In the data set on white mice, the “animals died (at the stated dose)” value is 0 out of 5.
For `C[S+]([O-])CC(O)c1ccc(-c2ccc(F)cc2)cc1` (stereo not drawn) [K], the inhibition at 100 µM in data set [1] (setting [5]) was found to be 59%; in data set [1] (setting [6]) it was 73%. Moreover, the figures for the change in vivo at 10 mg/kg in the data set on non-anesthetized mice (setting [3]) and in the data set on non-anesthetized mice (setting [4]) were 68% and 30%, respectively.
The matching figures for `COC(=O)C[S+]([O-])CC(=O)c1ccc(-c2ccccc2)cc1` (stereo not drawn) [L, [2-(4-biphenylyl)-2-oxo-ethylsulfinyl]-acetic acid methyl ester]: 22%, 47%, 120% and 78%.
Taken in the same sequence, the figures for `COC(=O)C[S+]([O-])CC(=O)c1ccc(-c2ccccc2F)cc1` (stereo not drawn) [M, [2-(2'-fluoro-4-biphenylyl)-2-oxo-ethylsulfinyl]-acetic acid methyl ester] were 97%, 95%, 90% and 39%.
As to `O=C(O)C[S+]([O-])CC(=O)c1ccc(-c2ccc(F)cc2)cc1` (stereo not drawn) [N, [2-(4'-fluoro-4-biphenyl)-2-oxo-ethylsulfinyl]acetic acid], the change in vivo at 10 mg/kg in the data set with non-anesthetized mice (setting [3]) came out at 98%; with non-anesthetized mice (setting [4]), 37%.
Consider `COC(=O)C[S+]([O-])C(C)c1ccc(-c2cccc(Cl)c2)cc1` (stereo not drawn) [O, [1-(3'-chloro-4-biphenylyl)-ethylsulfinyl]-acetic acid methyl ester], for which the figures for the inhibition at 100 µM in data set [1] (setting [5]) and in data set [1] (setting [6]) were 66% and 76%, respectively. Besides, in the data set with non-anesthetized mice (setting [3]), the change in vivo at 10 mg/kg was determined as 12%. The compound further had an LD50 at 336 h in data set [2] of over 250 mg/kg. Also, the “animals died (at the stated dose)” value in the data set with white mice is on record as 0 out of 5.
On to `COC(=O)C[S+]([O-])C(C)c1ccc(-c2ccccc2[N+](=O)[O-])cc1` (stereo not drawn) [P, [1-(2'-nitro-4-biphenylyl)ethylsulfinyl]-acetic acid methyl ester], for which the inhibition at 100 µM amounted to 61% in data set [1] (setting [5]) and 74% in data set [1] (setting [6]). Also, the change in vivo at 10 mg/kg with non-anesthetized mice (setting [3]) was found to be 15%. This compound also displayed an LD50 at 336 h in data set [2] of over 250 mg/kg. Besides, the “animals died (at the stated dose)” value in the data set with white mice was 0 out of 5.
The matching figures for `COC(=O)C[S+]([O-])C(C)c1ccc(-c2ccccc2F)c(F)c1` (stereo not drawn) [Q, [1-(2,2'-difluoro-4-biphenylyl)-ethylsulfinyl]-acetic acid methyl ester]: 48%, 54%, 73%, over 250 mg/kg and 0 out of 5.
In the case of `COC(=O)C[S+]([O-])C(C)c1ccc(-c2ccc(Br)cc2)c(F)c1` (stereo not drawn) [R, [1-(2-fluoro-4'-bromo-4-biphenylyl)-ethylsulfinyl]-acetic acid methyl ester], the figures for the inhibition at 100 µM in data set [1] (setting [5]) and in data set [1] (setting [6]) were 46% and 64%, respectively. Further, in the data set with non-anesthetized mice (setting [3]), the change in vivo at 10 mg/kg was 50%.
As to `COC(=O)CS(=O)(=O)C(C)c1ccc(-c2ccccc2F)cc1` (stereo not drawn) [S], the inhibition at 100 µM was found to be 45% in data set [1] (setting [5]) and 66% in data set [1] (setting [6]). Moreover, the change in vivo at 10 mg/kg stood at 83% in the data set on non-anesthetized mice (setting [3]) and 27% in the data set on non-anesthetized mice (setting [4]). The compound further displayed a median lethal dose (LD50) at 336 h in data set [2] of over 250 mg/kg. The “animals died (at the stated dose)” value with white mice was 0 out of 5.
Turning to `CC(C)CCOC(=O)CS(=O)(=O)C(C)c1ccc(-c2ccccc2F)cc1` (stereo not drawn) [T, [1-(2'-fluoro-4-biphenylyl)-ethylsulfonyl]-acetic acid isoamyl ester], the inhibition at 100 µM was 76% in data set [1] (setting [5]) and 83% in data set [1] (setting [6]). For the same compound, the change in vivo at 10 mg/kg with non-anesthetized mice (setting [3]) amounted to 51%. Moreover, the LD50 at 336 h in data set [2] is over 250 mg/kg. Further, the “animals died (at the stated dose)” value in the data set with white mice was 0 out of 5.
For `CC(c1ccc(-c2ccccc2F)cc1)S(C)(=O)=O` (stereo not drawn) [U, [1-(2'-fluoro-4-biphenylyl)-ethyl]-methylsulfone], the inhibition at 100 µM in data set [1] (setting [5]) stood at 87%; in data set [1] (setting [6]), 90%. Moreover, in the data set with non-anesthetized mice (setting [3]), the change in vivo at 10 mg/kg came out at 56%. Also, the LD50 at 336 h in data set [2] is over 250 mg/kg. The “animals died (at the stated dose)” value with white mice is 0 out of 5.
